From patent US20220213082A1, “PRODRUG OF CASPASE INHIBITOR” (LG CHEM, LTD., priority 2019, published 2022)

Tested on: recombinant human carboxylesterases (CE1b, CE1c and CE2)
Assay: Hydrolysis test by hydrolase (recombinant human carboxylesterases)
Assay type: in vitro ADME
Procedure: Various recombinant human carboxylesterases (CE1b, CE1c and CE2) were prepared in order to confirm the hydrolysis tendency of the prodrug by carboxylesterase (CE) which is a hydrolase. The initial enzyme concentration provided by the manufacturer was 5 mg/mL, which was diluted 1/50 in 100 mM potassium phosphate buffer to obtain a protein solution of 100 μg/mL. For the compound of Example 1—which is a prodrug compound to be tested, 5 mg/mL DMSO stock was used as a working solution, which was diluted 1/100 in acetonitrile to obtain 50 μg/mL concentration solution, and again diluted to a concentration of 1/100 in 100 mM potassium phosphate buffer to obtain a drug solution with a final concentration of 500 ng/mL. […] The samples were deproteinized with acetonitrile containing an internal standard (IS) and centrifuged, and the supernatant was injected into LC-MS/MS for analysis. By correcting the obtained peak area of the prodrug with the peak area of IS, the peak response at the time of collection of each sample was obtained, and the residual ratio (% remaining) compared to the initial value was converted. […]
Such result is analyzed that the compound of Example 1 was hydrolyzed by an esterase present in the reaction system and converted into a compound of Formula 2, which is the parent drug.

CC(=O)O[C@]1(CF)OC(=O)C[C@@H]1NC(=O)[C@]1(C(C)C)CC(c2nccc3ccccc23)=NO1 [Example 1, (2S,3S)-2-(fluoromethyl)-3-((R)-5-isopropyl-3-(isoquinolin-1-yl)-4,5-dihydroisoxazole-5-carboxamido)-5-oxotetrahydrofuran-2-yl acetate]
contribution of each human recombinant CE isozyme to hydrolysis into compound of Formula 2 (CE1b, CE1c, CE2 compared): greater by CE1b and CE1c than by CE2 | residual ratio (% remaining) of prodrug (spiked with human recombinant CE isozyme, after reaction for 60 minutes, LC-MS/MS): most of the prodrug was lost
